Target: T1, human Bradykinin B1 receptor (Homo sapiens, UniProt P46663)
T1 construct: host or cells: CHO-K1
T1 sequence (P46663 1-353): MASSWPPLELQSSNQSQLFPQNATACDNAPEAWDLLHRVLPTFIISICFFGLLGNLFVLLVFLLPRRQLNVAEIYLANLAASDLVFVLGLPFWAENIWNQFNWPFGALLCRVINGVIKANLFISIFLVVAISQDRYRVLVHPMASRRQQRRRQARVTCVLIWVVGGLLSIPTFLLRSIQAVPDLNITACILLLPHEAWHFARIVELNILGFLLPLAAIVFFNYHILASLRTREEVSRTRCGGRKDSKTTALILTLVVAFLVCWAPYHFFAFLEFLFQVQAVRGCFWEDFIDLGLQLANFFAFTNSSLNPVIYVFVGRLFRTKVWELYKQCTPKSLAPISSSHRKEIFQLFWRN
Experiment: Calcium flux Assay (FLIPR) with recombinant CHO-K1 cells expressing human Bradykinin B1 receptor, in presence (hB1 IC50) or absence (hB1 free IC50) of 0.1% BSA
Assay type: cell-based
Conditions: in absence of 0.1% BSA, read-out: hB1 free IC50
Procedure: The potency to inhibit the Bradykinin B1 receptor was determined for the compounds of this invention in a cell-based fluorescent calcium-mobilisation assay. The assay measures the ability of test compounds to inhibit Bradykinin B1 receptor agonist-induced increase of intracellular free Ca^2+ in the cell line expressing Bradykinin B1 receptor. […] The change of the intracellular Ca^2+ concentration is monitored with a fluorescent plate reader FLIPR TETRA® (Molecular Devices).
Calcium flux Assays (FLIPR) with cells expressing human Bradykinin B1 receptor (hB1)
CHO-K1 cell line expressing human Bradykinin B1 receptor was purchased from Euroscreen (Gosselies, Belgium, with reference name hB1-D1). The cells were grown in Nutrient Mixture Ham's F12 (Sigma) containing 10% Foetal bovine serum (Sigma) and 400 μg/mL G418 (Sigma), 5 μg/mL puromycim (Sigma). […]
Cells were seeded in a volume of 50 μL in medium without antibiotics and incubated overnight in a humidified atmosphere with 5% CO2 at 37° C. […] The calcium indicator loaded cells were incubated at 37° C. for 2 hrs. Extracellular dye was then removed and each well was filled with 45 μL of assay buffer. Cell plates were kept in dark until used. Compound examples were assayed at 8 concentrations in triplicate. Serial 10-fold dilutions in 100% DMSO were made at a 100-times higher concentration than the final concentration, and then diluted 1:10 in assay buffer. 5 μL of each diluted compound was added to the well of cell plates (yielding final concentration with 1% DMSO), and incubated for 30 min at 28° C. before the addition of Bradykinin B1 receptor agonist on the FLIPR instrument.
A peptide antagonist Lys-(Des-Arg-Leu)-Bradykinin (Bachem, Brackley) at 20 µM was used to determine the full inhibition as control.
Peak fluorescence was used to determine the response to agonist obtained at each concentration of compound examples by the following equation:
% Response=100*(RFU(compound)−RFU(control))/(RFU(DMSO)−RFU(control)) • RFU means relative fluorescence units. • Control means full inhibition by the peptide antagonist Lys-(Des-Arg-Leu)-Bradykinin at 20 µM.
The response values were plotted against the logarithm of the compound concentrations. The compound examples were tested in triplicates per plate and mean values were plotted in Excel XLfit to determine IC50 values, percentage of maximal inhibition and the Hill slopes.

| IC50 | SMILES |
| --- | --- |
| 284 nM | COc1cc(C2(C(=O)Nc3ccc(-c4ccc(OC)c(OC)c4)c(-c4nnn[nH]4)c3)CC2)ccc1F [Example 33, N-[3′,4′-dimethoxy-2-(1H-tetrazol-5-yl)biphenyl-4-yl]-1-(4-fluoro-3-methoxyphenyl) cyclopropane-carboxamide] |
| 13.7 nM | COc1ccc(-c2ccc(NC(=O)C3(c4cccc(C(F)(F)F)c4)CC3)cc2-c2nnn[nH]2)cc1OC [Example 38, N-[3′,4′-dimethoxy-2-(1H-tetrazol-5-yl)biphenyl-4-yl]-1-[3-(trifluoromethyl)phenyl] cyclopropane-carboxamide] |

Same assay, conditions: in presence of 0.1% BSA, read-out: hB1 IC50

| SMILES | IC50 |
| --- | --- |
| COc1ccc(-c2ccc(NC(=O)C3(c4ccc(F)cc4Cl)CC3)cc2-c2nnn[nH]2)cc1OC [Example 28, 1-(2-chloro-4-fluorophenyl)-N-[3′,4′-dimethoxy-2-(1H-tetrazol-5-yl)biphenyl-4-yl]cyclopropane carboxamide] | 138 nM |
| COc1ccc(-c2ccc(NC(=O)C3(c4c(F)cccc4F)CC3)cc2-c2nnn[nH]2)cc1OC [Example 29, 1-(2,6-difluorophenyl)-N-[3′,4′-dimethoxy-2-(1H-tetrazol-5-yl)biphenyl-4-yl]cyclopropane carboxamide] | 167 nM |
| COc1ccc(-c2ccc(NC(=O)C3(c4cc(F)ccc4Cl)CC3)cc2-c2nnn[nH]2)cc1OC [Example 30, 1-(2-chloro-5-fluorophenyl)-N-[3′,4′-dimethoxy-2-(1H-tetrazol-5-yl)biphenyl-4-yl]cyclopropane carboxamide] | 201 nM |
| COc1ccc(F)c(C2(C(=O)Nc3ccc(-c4ccc(OC)c(OC)c4)c(-c4nnn[nH]4)c3)CC2)c1 [Example 31, N-[3′,4′-dimethoxy-2-(1H-tetrazol-5-yl)biphenyl-4-yl]-1-(2-fluoro-5-methoxyphenyl) cyclopropane-carboxamide] | 212 nM |
| COc1cc(C2(C(=O)Nc3ccc(-c4ccc(OC)c(OC)c4)c(-c4nnn[nH]4)c3)CC2)ccc1F [Example 33, N-[3′,4′-dimethoxy-2-(1H-tetrazol-5-yl)biphenyl-4-yl]-1-(4-fluoro-3-methoxyphenyl) cyclopropane-carboxamide] | 238 nM |
| COc1ccc(-c2ccc(NC(=O)C3(C(F)(F)F)CC3)cc2-c2nnn[nH]2)cc1OC [Example 34, N-[3′,4′-dimethoxy-2-(1H-tetrazol-5-yl)biphenyl-4-yl]-1-(trifluoromethyl) cyclopropane-carboxamide] | 603 nM |
| COc1ccc(-c2ccc(NC(=O)C3(c4ccccc4)CC3)cc2-c2nnn[nH]2)cc1OC [Example 35, N-[3′,4′-dimethoxy-2-(1H-tetrazol-5-yl)biphenyl-4-yl]-1-phenylcyclo-propane-carboxamide] | 213 nM |
| COc1ccc(-c2ccc(NC(=O)C3(c4ccccc4C)CC3)cc2-c2nnn[nH]2)cc1OC [Example 37, N-[3′,4′-dimethoxy-2-(1H-tetrazol-5-yl)biphenyl-4-yl]-1-(2-methylphenyl) cyclopropane-carboxamide] | 1830 nM |
| COc1ccc(-c2ccc(NC(=O)C3(c4cccc(C(C)(C)C)c4)CC3)cc2-c2nnn[nH]2)cc1OC [Example 42, 1-(3-tert-butylphenyl)-N-[3′,4′-dimethoxy-2-(1H-tetrazol-5-yl)biphenyl-4-yl]cyclopropane carboxamide] | 746 nM |
| COc1ccc(-c2ccc(NC(=O)C3(c4ccc(C(C)(C)C)cc4)CC3)cc2-c2nnn[nH]2)cc1OC [Example 46, 1-(4-tert-butylphenyl)-N-[3′,4′-dimethoxy-2-(1H-tetrazol-5-yl)biphenyl-4-yl]cyclopropane carboxamide] | 141 nM |
| COc1ccc(C2(C(=O)Nc3ccc(-c4ccc(OC)c(OC)c4)c(-c4nnn[nH]4)c3)CC2)cc1 [Example 47, N-[3′,4′-dimethoxy-2-(1H-tetrazol-5-yl)biphenyl-4-yl]-1-(4-methoxyphenyl) cyclopropane-carboxamide] | 180 nM |
| COc1ccc(-c2ccc(NC(=O)C3(c4cccc(F)c4Cl)CC3)cc2-c2nnn[nH]2)cc1OC [Example 49, 1-(2-chloro-3-fluorophenyl)-N-[3′,4′-dimethoxy-2-(1H-tetrazol-5-yl)biphenyl-4-yl]cyclopropane carboxamide] | 213 nM |
| COc1ccc(-c2ccc(NC(=O)C3(c4cccc(Cl)n4)CC3)cc2-c2nnn[nH]2)cc1OC [Example 50, 1-(6-chloropyridin-2-yl)-N-[3′,4′-dimethoxy-2-(1H-tetrazol-5-yl)biphenyl-4-yl]cyclopropane carboxamide] | 310 nM |
| COc1ccc(-c2ccc(NC(=O)C3(c4ccc(Cl)nc4)CC3)cc2-c2nnn[nH]2)cc1OC [Example 51, 1-(6-Chloropyridin-3-yl)-N-[3′,4′-dimethoxy-2-(1H-tetrazol-5-yl)biphenyl-4-yl]cyclopropane carboxamide] | 342 nM |
| COc1ccc(-c2ccc(NC(=O)C3(Cc4ccccc4)CC3)cc2-c2nnn[nH]2)cc1OC [Example 53, 1-benzyl-N-[3′,4′-dimethoxy-2-(1H-tetrazol-5-yl)biphenyl-4-yl]cyclopropane carboxamide] | 514 nM |
| COc1ccc(-c2ccc(NC(=O)C3(CC4CCCCC4)CC3)cc2-c2nnn[nH]2)cc1OC [Example 54, 1-(cyclohexyl-methyl)-N-[3′,4′-dimethoxy-2-(1H-tetrazol-5-yl)biphenyl-4-yl]cyclopropane carboxamide] | 544 nM |
| COc1ccc(-c2ccc(NC(=O)C3(CC(C)C)CC3)cc2-c2nnn[nH]2)cc1OC [Example 55, N-[3′,4′-dimethoxy-2-(1H-tetrazol-5-yl)biphenyl-4-yl]-1-isobutyl-cyclopropane-carboxamide] | 2060 nM |
| COc1ccc(-c2ccc(NC(=O)C(C)(C)c3cccc(Cl)c3)cc2-c2nnn[nH]2)cc1OC [Example 61, 2-(3-chlorophenyl)-N-[3′,4′-dimethoxy-2-(1H-tetrazol-5-yl)biphenyl-4-yl]-2-methyl-propanamide] | 2050 nM |
| COc1ccc(-c2ccc(NC(=O)C3(c4cccc(Cl)c4)CCC3)cc2-c2nnn[nH]2)cc1OC [Example 62, 1-(3-chlorophenyl)-N-[3′,4′-dimethoxy-2-(1H-tetrazol-5-yl)biphenyl-4-yl]cyclobutane-carboxamide] | 2430 nM |

Stronger by IC50, values ahead:

| IC50 | SMILES |
| --- | --- |
| 51.5 nM | COc1ccc(-c2ccc(NC(=O)C3(c4cc(C(F)(F)F)ccc4F)CC3)cc2-c2nnn[nH]2)cc1OC [Example 27, N-[3′,4′-dimethoxy-2-(1H-tetrazol-5-yl)biphenyl-4-yl]-1-[2-fluoro-5-(trifluoromethyl)phenyl] cyclopropane-carboxamide] |
| 41.6 nM | COc1cc(F)cc(C2(C(=O)Nc3ccc(-c4ccc(OC)c(OC)c4)c(-c4nnn[nH]4)c3)CC2)c1 [Example 32] |
| 38.8 nM | COc1ccc(-c2ccc(NC(=O)C3(c4cccc(C(F)(F)F)c4)CC3)cc2-c2nnn[nH]2)cc1OC [Example 38, N-[3′,4′-dimethoxy-2-(1H-tetrazol-5-yl)biphenyl-4-yl]-1-[3-(trifluoromethyl)phenyl] cyclopropane-carboxamide] |
| 80.3 nM | COc1ccc(-c2ccc(NC(=O)C3(c4cccc(C)c4)CC3)cc2-c2nnn[nH]2)cc1OC [Example 39, N-[3′,4′-dimethoxy-2-(1H-tetrazol-5-yl)biphenyl-4-yl]-1-(3-methylphenyl) cyclopropane-carboxamide] |
| 31.4 nM | CCc1cccc(C2(C(=O)Nc3ccc(-c4ccc(OC)c(OC)c4)c(-c4nnn[nH]4)c3)CC2)c1 [Example 40, N-[3′,4′-dimethoxy-2-(1H-tetrazol-5-yl)biphenyl-4-yl]-1-(3-ethylphenyl) cyclopropane-carboxamide] |
| 92 nM | CCCc1cccc(C2(C(=O)Nc3ccc(-c4ccc(OC)c(OC)c4)c(-c4nnn[nH]4)c3)CC2)c1 [Example 41, N-[3′,4′-dimethoxy-2-(1H-tetrazol-5-yl)biphenyl-4-yl]-1-(3-propylpheny) cyclopropane-carboxamide] |
| 14 nM | COc1ccc(-c2ccc(NC(=O)C3(c4ccc(Cl)cc4)CC3)cc2-c2nnn[nH]2)cc1OC [Example 43, 1-(4-chlorophenyl)-N-[3′,4′-dimethoxy-2-(1H-tetrazol-5-yl)biphenyl-4-yl]cyclopropane carboxamide] |
| 49.8 nM | COc1ccc(-c2ccc(NC(=O)C3(c4ccc(C)cc4)CC3)cc2-c2nnn[nH]2)cc1OC [Example 45, N-[3′,4′-dimethoxy-2-(1H-tetrazol-5-yl)biphenyl-4-yl]-1-(4-methylphenyl) cyclopropane-carboxamide] |
| 36.6 nM | CCc1ccc(C2(C(=O)Nc3ccc(-c4ccc(OC)c(OC)c4)c(-c4nnn[nH]4)c3)CC2)cc1 [Example 57, N-[3′,4′-dimethoxy-2-(1H-tetrazol-5-yl)biphenyl-4-yl]-1-(4-ethylphenyl) cyclopropane-carboxamide] |

Source: US20210317092A1 (BAYER PHARMA AKTIENGESELLSCHAFT, priority 2016, published 2021)
